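How tested: cells in 96-well plates exposed to compound for 48 hours at five concentrations. Abbreviation: GI50, concentration required for 50% inhibition of growth.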 Activity calls are given as the source filed them. Cut-off read from the data, not from the text of the source: active = GI50 up to about 1.1 µM and inactive = higher.
How the values were obtained:
Assay in all cases: DTP human tumour cell line panel, 48 h
[1] = tested on: IGROV-1
[2] = tested on: DU-145
[3] = tested on: M14
[4] = tested on: HT-29
[5] = tested on: OVCAR-4
[6] = tested on: LOX IMVI
[7] = tested on: NCI-H460
[8] = tested on: HCC 2998
[9] = tested on: RXF 393
[10] = tested on: MCF7
[11] = tested on: SNB-19
[12] = tested on: UACC-62
[13] = tested on: SF-539
[14] = tested on: SK-MEL-5
[15] = tested on: MDA-MB-231
[16] = tested on: HL-60
[17] = tested on: SK-OV-3
[18] = tested on: SF-295
[19] = tested on: TK-10
[20] = tested on: PC-3
[21] = tested on: HCT-116
[22] = tested on: UACC-257
[23] = tested on: SNB-75
[24] = tested on: OVCAR-5
[25] = tested on: CAKI-1
[26] = tested on: MDA-MB-435
[27] = tested on: HCT-15
[28] = tested on: EKVX
[29] = tested on: SK-MEL-28
[30] = tested on: T47D
[31] = tested on: NCI/ADR-RES
[32] = tested on: OVCAR-8
[33] = tested on: HOP-92
[34] = tested on: UO-31
[35] = tested on: 786-0
[36] = tested on: U-251
[37] = tested on: ACHN
[38] = tested on: BT-549
[39] = tested on: KM12
[40] = tested on: MOLT-4
[41] = tested on: OVCAR-3
[42] = tested on: COLO 205
[43] = tested on: K562
[44] = tested on: Hs-578T
[45] = tested on: RPMI-8226
[46] = tested on: CCRF-CEM
[47] = tested on: SK-MEL-2
[48] = tested on: A549
[49] = tested on: SN12C
[50] = tested on: SF-268
[51] = tested on: NCI-H226
[52] = tested on: NCI-H23
[53] = tested on: A498
[54] = tested on: MDA-N
[55] = tested on: HOP-62
[56] = tested on: SW-620
[57] = tested on: SR
[58] = tested on: Malme-3M
[59] = tested on: NCI-H522

In the case of CC1=CC(C2/C(=N/O)C=C(C)CC2(C)C)C(O)C(C)(C)C1 (stereo unspecified), the GI50 [1] is reported as 17.3 µM (inactive), the GI50 [2] is reported as 15 µM (inactive) and the GI50 [3] is reported as 15.1 µM (inactive). For the same compound, the GI50 [4] was 14.3 µM (inactive), the GI50 [5] was 15 µM (inactive) and the GI50 [6] was 16.8 µM (inactive). The GI50 [7] was 21.3 µM (inactive), the GI50 [8] was 14.1 µM (inactive) and the GI50 [9] was 15.3 µM (inactive). The GI50 [10] was 15.3 µM (inactive), the GI50 [11] was 15.8 µM (inactive) and the GI50 [12] was 15.2 µM (inactive). The GI50 [13] was 24 µM (inactive), the GI50 [14] was 15.1 µM (inactive) and the GI50 [15] was 17.3 µM (inactive). The GI50 [16] was 16 µM (inactive), the GI50 [17] was 17.9 µM (inactive) and the GI50 [18] was 18.6 µM (inactive). The GI50 [19] was 19.1 µM (inactive), the GI50 [20] was 16.1 µM (inactive) and the GI50 [21] was 15.7 µM (inactive). The GI50 [22] was 15.5 µM (inactive), the GI50 [23] was 14.8 µM (inactive) and the GI50 [24] was 19.1 µM (inactive). The GI50 [25] was 15 µM (inactive), the GI50 [26] was 16.4 µM (inactive) and the GI50 [27] was 16.3 µM. The GI50 [28] was 16.5 µM (inactive), the GI50 [29] was 15.7 µM (inactive) and the GI50 [30] was 12.8 µM (inactive). For the same compound, the GI50 [31] was 16.3 µM (inactive), the GI50 [32] was 17.5 µM (inactive) and the GI50 [33] was 14.1 µM (inactive). For the same compound, the GI50 [34] was 15.6 µM (inactive), the GI50 [35] was 17.4 µM (inactive) and the GI50 [36] was 15.7 µM (inactive). For the same compound, the GI50 [37] was 18.9 µM (inactive), the GI50 [38] was 17.6 µM (inactive) and the GI50 [39] was 15.9 µM (inactive). The GI50 [40] was 13.5 µM (inactive), the GI50 [41] was 11.1 µM (inactive) and the GI50 [42] was 17.1 µM (inactive). The GI50 [43] was 14.2 µM (inactive), the GI50 [44] was 31.8 µM (inactive) and the GI50 [45] was 14 µM (inactive). The GI50 [46] was 22.8 µM (inactive), the GI50 [47] was 16 µM (inactive) and the GI50 [48] was 15.5 µM (inactive). The GI50 [49] was 18.4 µM (inactive), the GI50 [50] was 18 µM (inactive) and the GI50 [51] was 15.8 µM (inactive). For the same compound, the GI50 [52] was 16.2 µM (inactive), the GI50 [53] was 18 µM (inactive) and the GI50 [54] was 17 µM (inactive). The GI50 [55] was 14.9 µM (inactive) and the GI50 [56] was 15.7 µM (inactive).

CC[C@@]1(C[C@H]2C[C@@]3(C(=O)OC)c4[nH]c5ccccc5c4CCN3C2=S)COC2(CCCCC2)O1 was tested, and the GI50 [1] was 61.7 µM (inactive), the GI50 [2] was > 100 µM (inactive) and the GI50 [3] was 23.7 µM (inactive). The GI50 [4] was 16.7 µM (inactive), the GI50 [5] was > 100 µM (inactive) and the GI50 [6] was 78 µM (inactive). The GI50 [7] was 5.78 µM (inactive), the GI50 [8] was 15.2 µM (inactive) and the GI50 [9] was 59.6 µM (inactive). The GI50 [57] was 4.44 µM (inactive), the GI50 [10] was 33.3 µM (inactive) and the GI50 [11] was 38.5 µM (inactive). For the same compound, the GI50 [12] was 11.3 µM (inactive), the GI50 [13] was > 100 µM (inactive) and the GI50 [14] was 3.12 µM (inactive). The GI50 [16] was 4.06 µM (inactive), the GI50 [17] was > 100 µM (inactive) and the GI50 [18] was 22 µM (inactive). The GI50 [19] was 11.2 µM (inactive), the GI50 [20] was 4.97 µM (inactive) and the GI50 [21] was 6.92 µM (inactive). For the same compound, the GI50 [22] was 26.5 µM (inactive), the GI50 [23] was 17.8 µM (inactive) and the GI50 [24] was > 100 µM (inactive). The GI50 [25] was > 100 µM (inactive), the GI50 [26] was 5.09 µM (inactive) and the GI50 [27] was 5.57 µM. The GI50 [28] was 58.9 µM (inactive), the GI50 [30] was 26.2 µM (inactive) and the GI50 [31] was 57 µM (inactive). For the same compound, the GI50 [58] was > 100 µM (inactive), the GI50 [32] was > 100 µM (inactive) and the GI50 [33] was 2.62 µM (inactive). The GI50 [34] was 7.78 µM (inactive), the GI50 [35] was > 100 µM (inactive) and the GI50 [36] was 3.75 µM (inactive). The GI50 [37] was 45.8 µM (inactive), the GI50 [38] was 4.72 µM (inactive) and the GI50 [39] was 4.47 µM (inactive). The GI50 [40] was 6.15 µM (inactive), the GI50 [41] was 55.7 µM (inactive) and the GI50 [59] was 59.2 µM (inactive). For the same compound, the GI50 [42] was 7.41 µM (inactive), the GI50 [43] was 5.48 µM (inactive) and the GI50 [44] was 10.6 µM (inactive). The GI50 [46] was 7.23 µM (inactive), the GI50 [47] was > 100 µM (inactive) and the GI50 [48] was 54.6 µM (inactive). The GI50 [49] was > 100 µM (inactive), the GI50 [50] was 62.5 µM (inactive) and the GI50 [52] was 21.4 µM (inactive). The GI50 [53] was 88.7 µM (inactive), the GI50 [54] was 66.8 µM (inactive) and the GI50 [55] was 22.2 µM (inactive). The GI50 [56] was 3.13 µM (inactive).
